Read-outs that look alike come from different tables or passages of the source.

As a reminder, the IC50 is the concentration that gives 50% inhibition.

For experiment [1], the target named is T1, PKMYT1 (Homo sapiens, UniProt Q99640).
T1 construct: PKMYT1 (93 kD, full length, N-terminal GST tag from Signal Chem); GST (N); purchased Signal Chem
T1 sequence (Q99640 1-499): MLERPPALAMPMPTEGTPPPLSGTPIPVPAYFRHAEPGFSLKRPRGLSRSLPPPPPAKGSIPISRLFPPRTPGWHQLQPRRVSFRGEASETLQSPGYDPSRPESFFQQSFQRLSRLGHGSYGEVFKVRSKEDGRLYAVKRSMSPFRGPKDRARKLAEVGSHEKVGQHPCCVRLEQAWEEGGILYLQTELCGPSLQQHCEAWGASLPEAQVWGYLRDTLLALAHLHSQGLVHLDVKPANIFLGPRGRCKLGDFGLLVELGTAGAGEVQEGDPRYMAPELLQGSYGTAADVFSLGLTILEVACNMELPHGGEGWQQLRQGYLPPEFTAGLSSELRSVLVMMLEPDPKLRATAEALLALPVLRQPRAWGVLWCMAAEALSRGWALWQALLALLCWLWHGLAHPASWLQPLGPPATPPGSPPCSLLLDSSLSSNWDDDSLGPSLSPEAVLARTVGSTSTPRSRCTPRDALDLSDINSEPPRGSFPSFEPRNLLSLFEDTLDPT
Put plainly: ADP-Glo PKMYT1 ATP-depletion assay. The following applies: 50 nM PKMYT1, 13.3 nM CDK1, read-out: Biochemical IC50. Put shortly: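 Full-length N-terminal GST-tagged PKMYT1 (50 nM) with GST-CDK1 (13.3 nM) as substrate and 88 µM ATP, in Hepes buffer with MgCl2, MnCl2, DTT and BSA; DMSO <1%. Incubated 120 min at RT. ADP formed was quantified by ADP-Glo luminescence and used to derive biochemical IC50.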

For experiment [2], the system named is phosphorylation of CDK1 at Thr14 in HCC1806 cells. Put plainly: Cell lysate AlphaLISA assay measuring inhibition of phosphorylation of CDK1 Thr14. It counts as cell-based. The following applies: read-out: Cellular IC50. The procedure, abridged: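 HCC1806 cells seeded overnight, then treated 4 h at 37 °C, 5% CO2 with compounds in DMSO; washed and lysed, lysates frozen overnight at −80 °C. CDK1 Thr14 phosphorylation read by AlphaLISA SureFire Ultra; data normalized to DMSO (0% inhibition) and 3 μM reference compound to give IC50.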
On the technique in general: In Alpha technology, singlet oxygen from a donor bead excites a nearby acceptor bead.

Take `CCn1ccc2cc(C(N)=O)c(N)c(-c3cccc(O)c3C)c2c1=O` [Compound 324]: the results for the IC50 in experiment [1] and in experiment [2] (4 hours) were 50 to 500 nM and 500 to 1000 nM, respectively.
For the compound `Cc1ccc(O)c(C)c1-c1c(N)c(C(N)=O)nc2ccccc12` [Compound 22, 3-Amino-4-(3-hydroxy-2,6-dimethylphenyl)quinoline-2-carboxamide], the IC50 in experiment [1] was in the range of 50 to 500 nM; in experiment [2] (4 hours) it was 1000 to 5000 nM.
Take `Cc1ccc(O)c(C)c1-c1cc(C(N)=O)cc2cccnc12` [Compound 60, 8-(3-Hydroxy-2,6-dimethyl-phenyl)quinoline-6-carboxamide]: the IC50 in experiment [1] is 500 to 1000 nM; in experiment [2] (Homo sapiens, HCC1806, 4 h), at least 5000 nM.
In the case of `Cc1c(O)cccc1-c1c(N)c(C(N)=O)cc2nccnc12` (single isomer, unassigned) [Compound 87, (P)-7-Amino-8-(3-hydroxy-2-methylphenyl)quinoxaline-6-carboxamide], the results for the IC50 in experiment [1] and in experiment [2] (4 hours) were below 50 nM and 50 to 500 nM, respectively.
Consider `Cc1ccc(O)c(C)c1-c1c(N)c(C(N)=O)nc2nccnc12` [Compound 126, 7-amino-8-(3-hydroxy-2,6-dimethylphenyl)pyrido[2,3-b]pyrazine-6-carboxamide], for which the IC50 was below 50 nM in experiment [1] and 50 to 500 nM in experiment [2] (Homo sapiens, HCC1806, 4 h).
The like results for `COc1ncncc1-c1c(N)c(C(N)=O)nc2cccnc12` [Compound 231] were, in that order, 500 to 1000 nM and at least 5000 nM.
On to `NC(=O)c1cc2nccnc2c(-c2cc(O)ccc2C(F)(F)F)c1N` [Compound 215], for which the IC50 in experiment [1] was at least 5000 nM; in experiment [2] (Homo sapiens, HCC1806, 4 h), at least 5000 nM.
Turning to `Cc1ccc2[nH]ncc2c1-c1c(N)c(C(N)=O)nc2cccnc12` [Compound 6, 3-amino-4-(5-methyl-1H-indazol-4-yl)-1,5-naphthyridine-2-carboxamide], the IC50 is 50 to 500 nM in experiment [1] and 1000 to 5000 nM in experiment [2] (Homo sapiens, HCC1806, 4 h).
As to `Cc1c(O)cccc1-c1c(N)c(C(N)=O)cc2nccnc12` [Compound 73, 7-Amino-8-(3-hydroxy-2-methyl-phenyl)quinoxaline-6-carboxamide], the IC50 in experiment [1] is below 50 nM; in experiment [2] (Homo sapiens, HCC1806, 4 h) it was 50 to 500 nM.
The like results for `NC(=O)c1nc2c(c(-c3cc(O)cnc3F)c1N)NCCC2` (atropisomer, axis not shown) [Compound 294] were, in that order, 1000 to 5000 nM and at least 5000 nM.

For the origin of these results see patent US20260176270A1 (Exelixis, Inc., priority 2022, published 2026).
